The values that follow come from patent EP3046573B1, “AMYLIN ANALOGUES” (Zealand Pharma A/S, priority 2013, dated 2015).

Numbered stars: 1 amine (or outer) side, 2 acyl side, 3 side chain; on linkers, the order of the positions; unused ones are H or OH. Bridge positions count the residues as written; N and C are the ends. Square brackets hold non-standard residues; d marks the D form. Peptide text beside a SMILES is read from it. * marks the point of attachment. C20 diacid = O=C(O)CCCCCCCCCCCCCCCCCCC(=O)*; γGlu = O=C(O)[C@H](CCC(=O)[*:2])N[*:1]; NMeI = CC[C@H](C)[C@H](NC)C(=O)O; Sar = CNCC(=O)O

Series [1] has as its target T1, human amylin receptor 3 (hAMYR3) consisting of hCTR2 co-expressed with human Receptor Activity Modifying Protein 3 (hRAMP3) (Homo sapiens, UniProt O60896+P30988).
T1 construct: expressed in transfected cells
T1 sequence (P30988 25-474): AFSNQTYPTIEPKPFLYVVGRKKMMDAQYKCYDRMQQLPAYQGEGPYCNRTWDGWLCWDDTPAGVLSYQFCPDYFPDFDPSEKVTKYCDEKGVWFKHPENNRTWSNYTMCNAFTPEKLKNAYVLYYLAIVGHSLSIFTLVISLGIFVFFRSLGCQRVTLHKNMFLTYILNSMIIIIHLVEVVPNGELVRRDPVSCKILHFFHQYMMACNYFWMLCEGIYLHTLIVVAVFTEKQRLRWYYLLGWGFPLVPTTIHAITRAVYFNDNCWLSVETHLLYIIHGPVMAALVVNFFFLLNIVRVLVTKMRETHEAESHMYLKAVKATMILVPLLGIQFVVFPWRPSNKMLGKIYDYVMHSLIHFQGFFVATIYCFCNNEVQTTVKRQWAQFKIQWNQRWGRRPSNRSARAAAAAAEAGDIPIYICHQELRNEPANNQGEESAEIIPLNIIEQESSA
T1 sequence (O60896 24-148 partner): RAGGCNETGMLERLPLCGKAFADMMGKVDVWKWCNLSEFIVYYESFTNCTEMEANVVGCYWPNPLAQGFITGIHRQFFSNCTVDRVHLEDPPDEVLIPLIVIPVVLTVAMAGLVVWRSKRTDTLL
Nature of the series: hAMYR3 assay: induction of cAMP (AlphaScreen cAMP Assay kit) in COS7 cells expressing hAMYR3. The class given is cell-based. An outline of the steps:
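Stable COS7 clone co-expressing hCTR2 and hRAMP3, stimulated 15 min at 37° C with increasing peptide in Tyrode buffer pH 7.4 with 100 µM IBMX and 0.1% casein. cAMP measured by AlphaScreen after lysis; EC50 and % efficacy versus pramlintide from 4PL fit.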
On the technique in general: In Alpha technology, singlet oxygen from a donor bead excites a nearby acceptor bead.

The target in series [2] is T2, human calcitonin receptor (hCTR2) (Homo sapiens, UniProt P30988).
T2 construct: expressed in transfected cells
T2 sequence (P30988 25-474): T1 sequence (P30988 25-474)
As to the kind of experiment: hCTR2 assay: induction of cAMP (AlphaScreen cAMP Assay kit) in COS7 cells expressing hCTR2. The class given is cell-based. An outline of the steps:
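Functional agonism is measured as cAMP accumulation in a COS7 line stably transfected with hCTR2, lacking endogenous RAMPs. Peptides act for 15 min at 37° C with IBMX present, and curves are fitted with a 4-parameter logistic model.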

Series [3] can be described thus: Solubility assessment (turbidity absorbance at 325 nm). The following applies: stock 2 mg/ml diluted 1:1, ambient temperature (typically 25°C), n=1. The class given is physicochemical. A digest of the protocol: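 Peptide stock (2 mg/ml, water pH 2.5) diluted 1:1 into 100 mM acetate (pH 4.0, 5.0), histidine (pH 6.0, 7.0) or phosphate (pH 6.0–7.5) buffer; absorbance at 325 nm read at about 25°C, n=1. A325 ≤ 0.02 taken as solubility ≥ 1 mg/ml.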

As usually defined, the EC50 is the concentration that produces a half-maximal response. In the case of `CC[C@H](C)[C@@H](C(=O)N[C@@H](CC(C)C)C(=O)N[C@@H](CO)C(=O)N[C@@H](CO)C(=O)N[C@H](C(=O)N[C@@H](CC(N)=O)C(=O)N[C@H](C(=O)NCC(=O)N[C@@H](CO)C(=O)N[C@@H](CC(N)=O)C(=O)N[C@H](C(=O)N1CCC[C@H]1C(=O)NC)[C@@H](C)O)C(C)C)[C@@H](C)O)N(C)C(=O)[C@H](C)NC(=O)CN(C)C(=O)[C@H](Cc1ccccc1)NC(=O)[C@H](CC(N)=O)NC(=O)[C@H](CC(N)=O)NC(=O)[C@H](CO)NC(=O)[C@H](CO)NC(=O)[C@H](CCCNC(=N)N)NC(=O)[C@H](Cc1c[nH]cn1)NC(=O)[C@H](CC(C)C)NC(=O)[C@H](Cc1ccccc1)NC(=O)[C@H](CCC(=O)O)NC(=O)[C@H](C)NC(=O)[C@H](CC(C)C)NC(=O)[C@H](CCCNC(=N)N)NC(=O)[C@H](CCC(N)=O)NC(=O)[C@@H](NC(=O)[C@H](C)NC(=O)[C@@H]1CSSC[C@H](NC(=O)[C@H](CCCNC(=N)N)NC(=O)CC[C@H](NC(=O)CCCCCCCCCCCCCCCCCCC(=O)O)C(=O)O)C(=O)N[C@@H](CC(N)=O)C(=O)N[C@@H]([C@@H](C)O)C(=O)N[C@@H](C)C(=O)N[C@@H]([C@@H](C)O)C(=O)N1)[C@@H](C)O` [Compound 152, [19CD]-isoGlu-RC()NTATC()ATQRLAEFLHRSSNNF-Gly(Me)-A-Ile(Me)-LSSTNVGSNTP-NHMe] ({C20 diacid-γGlu}-RCNTATCATQRLAEFLHRSSNNF[Sar]A[NMeI]LSSTNVGSNTP-NHMe; disulfide 2-7), the EC50 is 5.2 nM in series [1] and 0.95 nM in series [2]. Also, in series [3] (100 mM acetate buffer pH 4.0), the “Solubility, Acetate buffer pH 4” value was “SS (SS indicates solubility ≥ 1mg/ml)”. For the same compound, the “Solubility, Acetate buffer pH 5” value in series [3] (100 mM acetate buffer pH 5.0) is “SS (SS indicates solubility ≥ 1mg/ml)”. Further, the “Solubility, Histidine buffer pH 6” value in series [3] (100 mM histidine buffer pH 6.0) was “SS (SS indicates solubility ≥ 1mg/ml)”. Further, the “Solubility, Histidine buffer pH 7” value in series [3] (100 mM histidine buffer pH 7.0) is “SS (SS indicates solubility ≥ 1mg/ml)”. Besides, in series [3] (100 mM phosphate buffer pH 6.0), the “Solubility, Phosphate buffer pH 6” value is listed as “SS (SS indicates solubility ≥ 1mg/ml)”. Moreover, the “Solubility, Phosphate buffer pH 7” value in series [3] (100 mM phosphate buffer pH 7.0) is reported as “SS (SS indicates solubility ≥ 1mg/ml)”. In series [3] (100 mM phosphate buffer pH7.5), the “Solubility, Phosphate buffer pH 7.5” value is recorded as “SS (SS indicates solubility ≥ 1mg/ml)”.
